Assays:
total HDAC = experiment: In vitro HDAC activity assay, total HDAC; format: biochemical; details: for IC50: read-out: IC50 values against total HDAC activity; for total HDAC activity remaining: 2 μM SAHA or 0.1 μM MAKV-8
Protocol: (§1) In vitro HDAC activities were measured as previously described. IC50 values against the various HDAC activities were determined using nonlinear regression in Prism 8.0 software (GraphPad Software, Inc., La Jolla, CA, USA).

K-562 cells [1] = experiment: Cell proliferation and viability, Trypan Blue exclusion; format: cell-based, human; details: for concentration from which cell death was triggered / cell viability decreased / concentration from which cell proliferation was reduced: K-562, 48 h
Protocol: (§4) Cell viability and proliferation were evaluated using the Trypan Blue exclusion method (BioWhittaker ®). Cells were processed using a semi-automated image-based cell analyzer (Cedex XS Innovatis, Roche, Luxembourg, Luxembourg), which provided the cell number as well as cell viability based on the fraction of trypan blue-positive cells.

Acetyl α-tubulin = experiment: Western blot of α-tubulin acetylation in K-562 cells; format: cell-based, human; details: for effect on α-tubulin acetylation (in words): increasing concentrations
Protocol: (§2) Cells were lyzed in 10% (v/v) Mammalian Protein Extraction Reagent solution (MPER®; Thermofisher, Erembodegen, Belgium) supplemented with 1× protease inhibitor cocktail (Complete EDTA-free, Roche) according to the manufacturer’s instructions. Histone enrichment was performed in acidic conditions as previously described. The protein concentration was determined using the Bradford assay (BioRad).

Acetyl histone H4 = experiment: Western blot of histone H4 acetylation in K-562 cells; format: cell-based, human; details: for effect on histone H4 acetylation (in words): increasing concentrations
Protocol: as §2

HDAC3 = test system: HDAC3; design: method as in PMID 18642892; details: in vitro; read-out: IC50 towards HDAC3; cited from earlier work
[2] = test system: K-562 cells xenografted in zebrafish; experiment: Zebrafish cancer cell xenograft; format: in vivo; details: K-562 cells treated 24 h, injected into zebrafish yolk sac, three days post-injection
Protocol: Cancer xenograft assays in zebrafish were performed as previously described using cells stained with 2 μM CM-Dil (Invitrogen) and diluted in 1× PBS supplemented with 1% phenol red sodium salt solution.

platelets = experiment: Platelet viability, flow cytometry after Annexin V staining; format: cell-based, human; details: 48 h
Protocol: Phosphatidylserine exposure was evaluated using the FITC Annexin V Apoptosis Detection Kit I (BD Biosciences) according to the supplier’s instructions. Stained samples were processed through a cytometer (FACS Calibur, BD Biosciences), and data were recorded statistically (10,000 events/sample) using the CellQuest Pro software (BD, Biosciences). Data were analyzed using the Flow-Jo 8.8.5 software.

recombinant HDAC6 = target: T1, recombinant HDAC6 (Homo sapiens, UniProt Q9UBN7); experiment: In vitro HDAC activity assay, recombinant HDAC6; format: biochemical; details: read-out: IC50 recombinant HDAC6 deacetylase activity
T1 sequence (Q9UBN7 1-1215): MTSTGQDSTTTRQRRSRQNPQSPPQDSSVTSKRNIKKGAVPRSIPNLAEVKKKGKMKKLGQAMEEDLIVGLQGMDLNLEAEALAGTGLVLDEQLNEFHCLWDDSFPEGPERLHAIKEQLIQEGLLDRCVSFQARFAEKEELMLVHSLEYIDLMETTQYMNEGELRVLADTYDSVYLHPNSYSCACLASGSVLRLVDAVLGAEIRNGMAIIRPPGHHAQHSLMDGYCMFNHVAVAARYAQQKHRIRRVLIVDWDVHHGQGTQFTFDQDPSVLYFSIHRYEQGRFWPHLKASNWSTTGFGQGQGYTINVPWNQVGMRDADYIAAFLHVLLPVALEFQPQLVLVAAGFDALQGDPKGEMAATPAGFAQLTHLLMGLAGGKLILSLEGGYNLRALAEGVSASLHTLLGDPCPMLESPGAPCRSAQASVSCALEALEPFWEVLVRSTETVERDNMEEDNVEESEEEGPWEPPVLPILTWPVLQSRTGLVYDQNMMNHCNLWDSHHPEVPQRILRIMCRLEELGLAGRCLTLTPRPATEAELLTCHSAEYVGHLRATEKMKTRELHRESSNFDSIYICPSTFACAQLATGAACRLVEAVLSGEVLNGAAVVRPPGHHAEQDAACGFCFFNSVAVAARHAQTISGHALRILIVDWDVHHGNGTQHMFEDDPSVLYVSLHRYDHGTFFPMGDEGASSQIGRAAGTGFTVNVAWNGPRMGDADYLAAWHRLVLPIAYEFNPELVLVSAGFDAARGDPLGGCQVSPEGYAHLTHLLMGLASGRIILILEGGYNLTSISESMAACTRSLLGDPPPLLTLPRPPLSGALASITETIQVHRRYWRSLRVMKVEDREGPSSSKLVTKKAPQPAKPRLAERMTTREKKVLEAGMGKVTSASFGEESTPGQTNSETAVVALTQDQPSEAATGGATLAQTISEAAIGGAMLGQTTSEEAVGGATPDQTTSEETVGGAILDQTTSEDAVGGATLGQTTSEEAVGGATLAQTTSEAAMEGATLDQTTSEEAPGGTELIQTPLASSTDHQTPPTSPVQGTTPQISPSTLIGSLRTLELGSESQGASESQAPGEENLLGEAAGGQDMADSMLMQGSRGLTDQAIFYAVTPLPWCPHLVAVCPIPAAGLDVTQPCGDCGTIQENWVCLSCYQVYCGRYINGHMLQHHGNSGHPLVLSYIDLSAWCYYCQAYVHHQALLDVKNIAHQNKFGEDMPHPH
Protocol: as §1

K-562 cells [3] = experiment: Cellular ALDH activity (ALDEFLUOR), ALDH+ LSC fraction; format: cell-based, human; details: K-562, 24 h; for ALDH+ cell percentage: untreated cells 50%
Protocol: Cellular ALDH activity was assessed using the ALDEFLUOR^TM kit (StemCell Technologies Inc.) according to the manufacturer’s procedure. Diethylaminobenzaldehyde, a specific inhibitor of ALDH activity, was used to differentiate cells with low or high ALDH activity.

KBM-5 cells [4] = experiment: Colony formation assay in methylcellulose; format: cell-based, human; details: KBM-5, 10 days
Protocol: (§3) For colony formation assays, 1000 cells were grown in 1 mL of semi-solid methylcellulose medium (Methocult H4230, StemCell Technologies Inc., Grenoble, France) supplemented with 10% heat-inactivated FCS (BioWhittaker ®) in 12-well plates. Colonies were detected after 10 days of culturing by adding 5 mg/mL 3-(4,5-dimethylthiazol-2-yl)-2,5-diphenyltetrazoliumbromide (MTT) reagent (Sigma-Aldrich) and incubating for 15 min at 37 °C. Pictures were taken with the GelDoc XR+ System (BioRad, Temse, Belgium), and quantifications were conducted using Image J software (US National Institute of Health, Bethesda, MD, USA).

MEG-01 cells [5] = experiment: Colony formation assay in methylcellulose; format: cell-based, human; details: MEG-01, 10 days
Protocol: as §3

K-562 cells [6] = experiment: Colony formation assay in methylcellulose; format: cell-based, human; details: K-562, 10 days
Protocol: as §3

K-562 cells [7] = experiment: Cyto-ID quantification of autophagic vesicles; format: cell-based, human; details: K-562, 8 h, Cyto-ID staining
Protocol: For fluorescence microscopy, the Cyto-ID® Autophagy Detection Kit (Enzo Life Science) was used according to the manufacturer’s instructions. […] Green fluorescent autophagy-related organelles (pre-autophagosomes, autophagosomes, and autophagolysosomes) were quantified as green signal area per cell nucleus as advised by the manufacturer. Segmentation of these areas was based on 31 parameters assessing color, texture, and edge and was carried out in Ilastik, version 1.3.0 developed by the European Molecular Biology Laboratory, Heidelberg. Classifiers trained for these parameters on a set of representative images were then applied to batch process multiple images as described in Ilastik’s user manual. Binary masks thus obtained were measured in FIJI [59] after applying a size filter to remove small size artifacts resulting from segmentation.

recombinant HDAC1 = recombinant HDAC1 (Homo sapiens, UniProt Q13547); experiment: In vitro HDAC activity assay, recombinant HDAC1; format: biochemical; details: read-out: IC50 recombinant HDAC1 deacetylase activity
Protocol: as §1

RPMI-1788 cells = experiment: Healthy cell model viability, nuclear morphology; format: cell-based, human; details: RPMI-1788, 48 h, 10 μM MAKV-8
From the text: PBMCs were isolated from the blood of healthy adult human donors obtained from the Red Cross (Luxembourg, Luxembourg) and purified as previously reported [43]. […] Platelets from healthy adult human donors were provided by the Red Cross.

HDAC6 = test system: HDAC6; design: method as in PMID 18642892; details: in vitro; read-out: IC50 towards HDAC6; cited from earlier work
PBMCs [8] = experiment: Healthy cell viability, Trypan Blue exclusion; details: 48 h
Protocol: (§5) PBMCs were isolated from the blood of healthy adult human donors obtained from the Red Cross (Luxembourg, Luxembourg) and purified as previously reported [43].
as §4

KBM-5 cells [9] = experiment: Cell proliferation and viability, Trypan Blue exclusion; format: cell-based, human
Protocol: as §4

MEG-01 cells [10] = experiment: as above; format: cell-based, human
Protocol: as §4

PBMCs [11] = test system: PBMCs
Protocol: as §5, §4

Sequence of recombinant HDAC1 (Q13547 whole entry): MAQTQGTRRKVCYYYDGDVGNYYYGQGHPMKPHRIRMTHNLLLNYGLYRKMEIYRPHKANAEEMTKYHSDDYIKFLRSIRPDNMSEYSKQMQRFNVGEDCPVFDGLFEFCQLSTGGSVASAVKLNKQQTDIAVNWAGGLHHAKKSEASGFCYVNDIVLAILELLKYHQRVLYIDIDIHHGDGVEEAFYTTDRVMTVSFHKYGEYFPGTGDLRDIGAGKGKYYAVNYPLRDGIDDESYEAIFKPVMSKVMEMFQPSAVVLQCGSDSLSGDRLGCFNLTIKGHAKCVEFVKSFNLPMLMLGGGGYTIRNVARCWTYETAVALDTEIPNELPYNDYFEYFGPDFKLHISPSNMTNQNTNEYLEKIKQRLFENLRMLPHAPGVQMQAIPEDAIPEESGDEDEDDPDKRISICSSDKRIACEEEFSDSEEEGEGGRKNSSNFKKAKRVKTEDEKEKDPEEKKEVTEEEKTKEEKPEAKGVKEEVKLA

## CC(C)(C)OC(=O)Nc1cccc(-c2cc(C(=O)NO)no2)c1 [MAKV-6]
Total HDAC; in vitro
  IC50 values against total HDAC activities (in words): low micromolar range
  IC50: 1050 ± 220 nM
K-562 cells [1]
  concentration from which cell death was triggered / cell viability decreased: ≥ 25 µM
  concentration from which cell proliferation was reduced: ≥ 5 µM
Acetyl α-tubulin; 24 h
  effect on α-tubulin acetylation (in words): failed to increase α-tubulin acetylation
Acetyl histone H4; 24 h
  effect on histone H4 acetylation (in words): increased histone H4 acetylation only at the highest concentrations

## CC(C)(C)OC(=O)Nc1ccc(-c2cc(C(=O)NO)no2)cc1 [MAKV-7]
Total HDAC; in vitro
  IC50 values against total HDAC activities (in words): low micromolar range
  IC50: 22000 nM
K-562 cells [1]
  concentration from which cell death was triggered / cell viability decreased: ≥ 25 µM
  concentration from which cell proliferation was reduced: ≥ 10 µM
Acetyl α-tubulin; 24 h
  effect on α-tubulin acetylation (in words): failed to increase α-tubulin acetylation
Acetyl histone H4; 24 h
  effect on histone H4 acetylation (in words): increased histone H4 acetylation only at the highest concentrations

## CC(C)(C)OC(=O)Nc1cccc(-c2cc(C(=O)NCCCCCCC(=O)NO)no2)c1 [MAKV-8]
Total HDAC
  total HDAC activity remaining: about 10%
Total HDAC; in vitro
  potency as pan-HDACi relative to SAHA: 10 times
  IC50: 5.8 ± 3.8 nM
HDAC3
  IC50: 0.002 nM
K-562 cells [1]
  concentration from which cell death was triggered / cell viability decreased: ≥ 10 µM
K-562 cells [1]; K-562, up to 72 h
  concentration from which cell growth was inhibited: about 3 μM
[2]
  tumor formation / tumor volume (in words): unable to significantly reduce tumor volumes
platelets
  cytotoxicity in platelets (in words): neither alone nor in co-treatments elicited any significant cytotoxicity in platelets
Recombinant HDAC6
  IC50: 11.4 nM
K-562 cells [3]
  ALDH+ cell percentage: 24%
KBM-5 cells [4]
  concentration from which colony formation (replicative ability, 3D model) was strongly reduced: ≥ 10 µM
MEG-01 cells [5]
  concentration from which colony formation (replicative ability, 3D model) was strongly reduced: ≥ 5 µM
K-562 cells [6]
  concentration from which colony formation (replicative ability, 3D model) was strongly reduced: ≥ 5 µM
K-562 cells [7]
  autophagic signal area per nucleus compared to controls: about 1.5 times
Recombinant HDAC1
  IC50: 2.6 nM
Acetyl α-tubulin; 15 µM MAKV-8
  time at which increase in α-tubulin acetylation begins: ≥ 2 h
Acetyl α-tubulin; 24 h
  concentration from which α-tubulin acetylation was induced: ≥ 5 µM
Acetyl α-tubulin; Homo sapiens, K562, 24 h, western blot quantification, read-out: EC50 half-maximal acetylation of α-tubulin
  EC50: 12100 ± 900 nM
RPMI-1788 cells
  reduction of living cells: about 55%
HDAC6
  IC50: 0.002 nM
PBMCs [8]
  maximum decrease of viable cells: ≤ 30%
KBM-5 cells [9]; KBM-5, 48 h
  concentration from which cell death was triggered: ≥ 10 µM
KBM-5 cells [9]; KBM-5, up to 72 h
  concentration from which cell growth was inhibited: about 3 μM
Acetyl histone H4; 15 µM MAKV-8
  time at which increase in histone H4 acetylation begins: ≥ 2 h
Acetyl histone H4; 24 h
  concentration from which histone H4 acetylation was induced: ≥ 1 µM
Acetyl histone H4; Homo sapiens, K562, 24 h, western blot quantification, read-out: EC50 half-maximal acetylation of histone H4
  EC50: 5900 ± 1400 nM
MEG-01 cells [10]; MEG-01, 48 h
  concentration from which cell death was triggered: ≥ 10 µM
MEG-01 cells [10]; MEG-01, up to 72 h
  concentration from which cell growth was inhibited: about 3 μM

## COC(=O)CCCCCCNC(=O)c1cc(-c2cccc(NC(=O)OC(C)(C)C)c2)on1 [MAKV-10]
Total HDAC; in vitro
  concentration up to which HDAC activities were not inhibited: > 100 µM
  IC50: > 100000 nM
K-562 cells [1]; K-562, up to 72 h
  effect on cell proliferation and viability (in words): neither MAKV-10 nor MAKV-12 impacted K-562 cell proliferation and viability
Acetyl α-tubulin; 24 h
  effect on α-tubulin acetylation (in words): did not augment protein target acetylation levels
Acetyl histone H4; 24 h
  effect on histone H4 acetylation (in words): did not augment protein target acetylation levels

## COC(=O)CCCCCCNC(=O)c1cc(-c2cccc(N)c2)on1 [MAKV-12]
Total HDAC; in vitro
  concentration up to which HDAC activities were not inhibited: > 100 µM
  IC50: > 100000 nM
K-562 cells [1]; K-562, up to 72 h
  effect on cell proliferation and viability (in words): neither MAKV-10 nor MAKV-12 impacted K-562 cell proliferation and viability
Acetyl α-tubulin; 24 h
  effect on α-tubulin acetylation (in words): did not augment protein target acetylation levels
Acetyl histone H4; 24 h
  effect on histone H4 acetylation (in words): did not augment protein target acetylation levels

## O=C(CCCCCCC(=O)Nc1ccccc1)NO [SAHA, suberoylanilide hydroxamic acid, reference compound]
Total HDAC
  total HDAC activity remaining: about 10%
K-562 cells [3]
  effect on ALDH+ cell proportion (in words): failed to reduce the ALDH^+ cell proportion

## Cc1ccc(NC(=O)c2ccc(CN3CCN(C)CC3)cc2)cc1Nc1nccc(-c2cccnc2)n1 [imatinib]
K-562 cells [3]
  ALDH+ cell percentage: 30%
PBMCs [11]
  cell mortality (in words): failed to trigger any cell mortality

Source: paper PMC7236970 (Clinical Epigenetics, 2020)
